Test results from US8859060B2, “Protective film of polarizer, polarizer and liquid crystal display device” (FUJIFILM Corporation, priority 2009, dated 2014).
“And” between values parts separate entries of the source, which are not always exact repeats. Identical values can stand only once.

Assays:
[1] = Acid dissociation constant by alkali titration in THF/water=6/4; assay type: physicochemical; conditions: mixed solvent of THF/water=6/4 by volume at 25° C.
Procedure: Preferably, the acid dissociation constant of the organic acid in a mixed solvent of THF/water=6/4 by volume at 25° C. is from 2.5 to 7, more preferably from 2.5 to 6.5, even more preferably from 3 to 5.

[2] = Solubility in water at 25° C.

SMILES | Acid dissociation constant [1] | Solubility to water [2]
CCC(Oc1ccc(C(C)(C)CC)cc1C(C)(C)CC)C(=O)Nc1cccc(C(=O)O)c1 (stereo not shown) [Organic acid B] | 6.6 | –
O=C(O)CC(O)(CC(=O)O)C(=O)O [Citric acid, citric acid, reference compound] | 4.0 | –
O=C1NS(=O)(=O)c2ccccc21 [Organic acid H] | 2.6 | –
O=C(O)c1ccc(C(=O)O)cc1 [Terephthalic acid, reference compound] | 4.5 | More than 1 wt %
Nc1c(F)c(F)c(C(=O)O)c(F)c1F [Organic acid C] | 5.0 | –
CCC(C)(C)c1ccc(OCCCC(=O)O)c(C(C)(C)CC)c1 [Organic acid F, reference compound] | 7.3 | –
CC(=O)Nc1c(I)cc(I)c(C(=O)O)c1I [Organic acid D] | 4.4 | –
O=C1NC(=O)N(Cc2ccccc2)C(=O)C1c1ccccc1 (stereo not shown) [Organic acid A] | 4.0 and 3.0 | –
O=C(O)C=Cc1ccccc1 [Cinnamic acid, cinnamic acid, reference compound] | 4.7 | –
